Measured values as given in US4199570A, “1-N-Hetero containing aminoglycoside derivatives” (Shionogi & Co., Ltd., priority 1977, dated 1980).
Converted amounts (≈) assume the structure as drawn.

What was measured:
[1] = tested on: kanamycin A resistant strains; details: cited from earlier work
[2] = compared with kanamycin A; cited from earlier work
[3] = tested on: Sarcina lutea PCI 1001; assay: MIC (Table 2); format: cell-based; details: Micrococcus luteus, PCI1001, read-out: Minimum Inhibitory Concentration (MIC)
[4] = tested on: Proteus inconstans In-27; assay: MIC (Table 2); format: cell-based; details: Providencia alcalifaciens, IN27, tobramycin resistant strain, read-out: Minimum Inhibitory Concentration (MIC)
[5] = tested on: Streptococcus pyogenes ATCC 10389; assay: MIC (Table 2); details: ATCC10389, read-out: Minimum Inhibitory Concentration (MIC)
[6] = tested on: Staphylococcus aureus 80285; assay: MIC (Table 2); details: Staphylococcus aureus, 80285, read-out: Minimum Inhibitory Concentration (MIC)
[7] = tested on: Pseudomonas aeruginosa PP-6; assay: MIC (Table 2); details: PP6, read-out: Minimum Inhibitory Concentration (MIC)
[8] = tested on: Escherichia coli W-677/JR 214; assay: MIC (Table 2); details: W677/JR214, read-out: Minimum Inhibitory Concentration (MIC)
[9] = tested on: Klebsiella pneumoniae Kl 38; assay: MIC (Table 2); details: KL38, read-out: Minimum Inhibitory Concentration (MIC)
[10] = tested on: Enterobacter cloacae CI-38; assay: MIC (Table 2); details: CI38, read-out: Minimum Inhibitory Concentration (MIC)
[11] = tested on: Citrobactor freundii Ct-31; assay: MIC (Table 2); details: read-out: Minimum Inhibitory Concentration (MIC)
[12] = tested on: Escherichia coli TB-705; assay: MIC (Table 2); format: cell-based; details: TB705, read-out: Minimum Inhibitory Concentration (MIC)
[13] = tested on: Proteus mirabilis Pm-5; assay: MIC (Table 2); details: PM5, read-out: Minimum Inhibitory Concentration (MIC)
[14] = tested on: Escherichia coli W-677/JR 762; assay: MIC (Table 2); details: W677/JR762, read-out: Minimum Inhibitory Concentration (MIC)
[15] = tested on: Escherichia coli W-677/JR 66; assay: MIC (Table 2); details: W677/JR66, read-out: Minimum Inhibitory Concentration (MIC)
[16] = tested on: Serratia marcescens MA-26; assay: MIC (Table 2); details: MA26, read-out: Minimum Inhibitory Concentration (MIC)
[17] = tested on: Proteus mirabilis TB-617; assay: MIC (Table 3); format: cell-based; details: TB617, read-out: Minimum Inhibitory Concentration (MIC)
[18] = tested on: Escherichia coli W-677/JR-762; assay: MIC (Table 3); details: W677/JR762, read-out: Minimum Inhibitory Concentration (MIC)
[19] = tested on: Streptococcus pyogenes C-203; assay: MIC (Table 3); details: C203, read-out: Minimum Inhibitory Concentration (MIC)
[20] = tested on: Pseudomonas aeruginosa PP-6; assay: MIC (Table 3); format: cell-based; details: PP6, read-out: Minimum Inhibitory Concentration (MIC)

NCC[C@H](O)C(=O)N[C@@H]1C[C@H](N)[C@@H](O[C@H]2O[C@H](CN)[C@@H](O)[C@H](O)[C@H]2O)[C@H](O)[C@H]1O[C@H]1O[C@H](CO)[C@@H](O)[C@H](N)[C@H]1O [amikacin]
effect against kanamycin A resistant strains [1]: effective against kanamycin A resistant strains | toxicity [2]: approximately the same as kanamycin A

NC[C@H]1O[C@H](O[C@H]2[C@H](O)[C@@H](O[C@H]3O[C@H](CO)[C@@H](O)[C@H](N)[C@H]3O)[C@H](NC(=O)C3(O)CNC3)C[C@@H]2N)[C@H](O)[C@@H](O)[C@@H]1O [Comp. (2), 1-N-(3-hydroxyazetidine-3-carbonyl)kanamycin A]
MIC [3]: 12.5 µg/mL (≈ 21.4 µM) | MIC [4]: 6.25 µg/mL (≈ 10.7 µM) | MIC [5]: 50 µg/mL (≈ 85.7 µM) | MIC [6]: 12.5 µg/mL (≈ 21.4 µM) | MIC [7]: 6.25 µg/mL (≈ 10.7 µM) | MIC [8]: 3.13 µg/mL (≈ 5.36 µM) | MIC [9]: 1.56 µg/mL (≈ 2.67 µM) | MIC [10]: 3.13 µg/mL (≈ 5.36 µM) | MIC [11]: 3.13 µg/mL (≈ 5.36 µM) | MIC [12]: 12.5 µg/mL (≈ 21.4 µM) | MIC [13]: 6.25 µg/mL (≈ 10.7 µM) | MIC [14]: 12.5 µg/mL (≈ 21.4 µM) | MIC [15]: 6.25 µg/mL (≈ 10.7 µM) | MIC [16]: 12.5 µg/mL (≈ 21.4 µM)

NC[C@H]1O[C@H](O[C@H]2[C@H](O)[C@@H](O[C@H]3O[C@H](CO)[C@@H](O)[C@H](N)[C@H]3O)[C@H](N)C[C@@H]2N)[C@H](N)C[C@@H]1O [TOB, tobramycin]
MIC [17]: 6.2 µg/mL (≈ 13.3 µM) | MIC [3]: 12.5 µg/mL (≈ 26.7 µM) | MIC [4]: 12.5 µg/mL (≈ 26.7 µM) | MIC [18]: 25 µg/mL (≈ 53.5 µM) | MIC [5]: 25 µg/mL (≈ 53.5 µM) | MIC [6]: 0.78 µg/mL (≈ 1.67 µM) | MIC [7]: > 100 µg/mL | MIC [8]: 100 µg/mL (≈ 214 µM) | MIC [9]: 1.56 µg/mL (≈ 3.34 µM) | MIC [10]: 0.78 µg/mL (≈ 1.67 µM) | MIC [11]: 3.13 µg/mL (≈ 6.69 µM) | MIC [12]: 6.25 µg/mL (≈ 13.4 µM) | MIC [19]: 6.2 µg/mL (≈ 13.3 µM) | MIC [20]: 100 µg/mL (≈ 214 µM) | MIC [13]: 12.5 µg/mL (≈ 26.7 µM) | MIC [14]: 100 µg/mL (≈ 214 µM) | MIC [15]: 25 µg/mL (≈ 53.5 µM) | MIC [16]: 50 µg/mL (≈ 107 µM)

NC[C@H]1O[C@H](O[C@H]2[C@H](O)[C@@H](O[C@H]3O[C@H](CO)[C@@H](O)[C@H](N)[C@H]3O)[C@H](NC(=O)C3(O)CNC3)C[C@@H]2N)[C@H](N)C[C@@H]1O [Comp. (1), 1-N-(3-hydroxyazetidine-3-carbonyl)tobramycin]
MIC [3]: 3.13 µg/mL (≈ 5.52 µM) | MIC [4]: 12.5 µg/mL (≈ 22.1 µM) | MIC [5]: 25 µg/mL (≈ 44.1 µM) | MIC [6]: 0.78 µg/mL (≈ 1.38 µM) | MIC [7]: 3.13 µg/mL (≈ 5.52 µM) | MIC [8]: 3.13 µg/mL (≈ 5.52 µM) | MIC [9]: 0.78 µg/mL (≈ 1.38 µM) | MIC [10]: 0.78 µg/mL (≈ 1.38 µM) | MIC [11]: 1.56 µg/mL (≈ 2.75 µM) | MIC [12]: 3.13 µg/mL (≈ 5.52 µM) | MIC [13]: 1.56 µg/mL (≈ 2.75 µM) | MIC [14]: 3.13 µg/mL (≈ 5.52 µM) | MIC [15]: 3.13 µg/mL (≈ 5.52 µM) | MIC [16]: 6.25 µg/mL (≈ 11 µM)

NC[C@H]1O[C@H](O[C@H]2[C@H](O)[C@@H](O[C@H]3O[C@H](CO)[C@@H](O)[C@H](N)[C@H]3O)[C@H](N)C[C@@H]2N)[C@H](O)[C@@H](O)[C@@H]1O [KM-A, kanamycin A]
MIC [3]: 12.5 µg/mL (≈ 25.8 µM) | MIC [4]: > 100 µg/mL | MIC [5]: 100 µg/mL (≈ 206 µM) | MIC [6]: > 100 µg/mL | MIC [7]: > 100 µg/mL | MIC [8]: > 100 µg/mL | MIC [9]: > 100 µg/mL | MIC [10]: > 100 µg/mL | MIC [11]: > 100 µg/mL | MIC [12]: > 100 µg/mL | MIC [13]: > 100 µg/mL | MIC [14]: > 100 µg/mL | MIC [15]: > 100 µg/mL | MIC [16]: > 100 µg/mL
